# Square brackets hold non-standard residues; d marks the D form. Peptide text beside a SMILES is read from it. Nle = CCCC[C@H](N)C(=O)O
# Assays:
# calpain = assay: Calpain inhibitor test: Fura-2 and EYFP fluorescence in primary cultures of cerebellum expressing F2C, potassium stimulation; format: cell-based, rat; conditions: ALLN 100 μM, ALLM 50 μM; for percentage of F535 EYFP maximum fluorescence change to Fura-2 maximum ratio change versus control free of calpain inhibitors: p>0.28; for percentage of F535 EYFP maximum fluorescence change to Fura-2 maximum ratio change (mean ± S.E.M.): preincubation 1 hr, potassium stimulation, n=10 cells
# Method: (§1) The primary culture of cerebellum was incubated at 37° C., in 5% CO2 and 95% O2 atmosphere. The cells on a cover glass slip were infected with Sindbis-F2C 24 hrs before the incubation with Fura-2/AM (Molecular Probes, Eugene, Oregon, U.S.A.). This glass slip was transferred to a new dish filled with an external solution (ACSF, artificial cerebro-spinal fluid; 155 mM NaCl, 2.5 mM CaCl2, 1 mM MgCl2, 10 mM, HEPES, 17 mM glucose and 5 mM KOH and adjusted to pH 7.4). Fura-2/AM was added to a final concentration of 20 μM, and further incubated for 30 min at 37° C. Fura-2/AM (10 mM) stock was dissolved in DMSO. Cerebella cultures were transferred under the upright microscope equipped with a cooled CCD camera, and the image was prepared (ORCA-ER on Aquacosmos, Hamamatsu Photonics, Hamamatsu, Japan). For Fura-2 imaging, excitation light at wavelength 340 nm (10 nm band widths, 100% transmission) and excitation light at wavelength 380 nm (10 nm band widths, 100% transmission) were alternately applied, and fluorescence was captured at 510 nm and at longer wavelength. When F2C fluorescence was measured simultaneously, excitation light at 440 nm (10 nm band widths, 100% transmission) was applied and the fluorescence at a wavelength longer than 510 nm was captured. This fluorescence corresponds to EYFP. When FRET was measured from brain slice preparations or from cerebella cultures, neurons were excited at 440 nm (20 nm band width 60% transmission, XF1071 Omega Optical) with a dichroic mirror at 435 ram (XF2034 Omega Optical) and the fluorescence was monitored through 480 nm (30 nm bandwidth 75% transmission, XF3075 Omega Optical) for ECFP and 535 nm (25 nm bandwidth 70% transmission, XF3079 Omega Optical+50% ND filter) for EYFP.
# To test the inhibition of calpain activities, calpain inhibitor-1 (ALLN, Calbiochem) and calpain inhibitor-2 (ALLM, Calbiochem) were adopted and Fura-2 fluorescence and EYFP fluorescence measurements were similarly conducted. The primary cultures of cerebellum were preincubated in ACSF containing ALLN (100 μM in DMSO), ALLM (50 μM in DMSO) or a combination of both for 1 hr. The same concentration of DMSO was added to ACSF as a control.
# [1] = test system: cerebellar Purkinje cells; assay: FRET fluorescence ratio (ECFP/EYFP) in cultured Purkinje cells expressing the indicator, KCl stimulation; format: cell-based, rat
# Method: Purkinje cells were cultured in the same manner as reported previously (Weber, A. et al., Brain Res., 311, 119-130, 1984/Hirano, T. et al., Proc. Natl. Acad. Sci. U.S.A., 83, 1945-1949, 1986). In short, cerebella were dissected from Wistar rat fetus (about 20 days of fetal stage), and meninges were removed. The cerebella were incubated at 20° C. for 4 min in 1% trypsin (Invitrogen, California, U.S.A.)/0.05% DNase (Sigma, Missouri, U.S.A.) solution containing 137 mM NaCl, 5 mM KCl, 7 mM Na2PO4, and 25 mM HEPES (pH 7.2). After washing with Ca^2+- and Mg^2+-free Hanks' balanced salt solution (Invitrogen) three times, the tissue was dispersed by trituration with a fire polished Pasteur pipette in Ca^2+-free Hanks' balanced salt solution containing 0.05% DNase and 12 mM MgSO4. The cell suspension was centrifuged at 180×g at room temperature and the pelletized cells were resuspended at a concentration of 10^6 cells per 1 ml in a defined medium, which facilitates the survival of neurons (Weber, A. et al., Brain Res., 311, 119-130, 1984/Fischer, G. et al., Neurosci Lett, 28, 325-329, 1982). 2 ml of this cell suspension was plated on a Petri dish containing several heat-sterilized glass coverslips coated with 0.01% poly-L-lysin (Sigma). This cell culture was incubated at 37° C. in 5% CO2. The cells on the glass coverslips were used for infection with Sindbis virus. […]
# (§2) The primary culture of cerebellum was incubated at 37° C., in 5% CO2 and 95% O2 atmosphere. […] For Fura-2 imaging, excitation light at wavelength 340 nm (10 nm band widths, 100% transmission) and excitation light at wavelength 380 nm (10 nm band widths, 100% transmission) were alternately applied, and fluorescence was captured at 510 nm and at longer wavelength. When F2C fluorescence was measured simultaneously, excitation light at 440 nm (10 nm band widths, 100% transmission) was applied and the fluorescence at a wavelength longer than 510 nm was captured. This fluorescence corresponds to EYFP. […]
# [2] = test system: cochlear nucleus neurons in brain slices; assay: FRET fluorescence ratio (ECFP/EYFP) in cochlear nucleus neurons of brain-stem slices after in vivo Sindbis injection, KCl stimulation; format: cell-based, rat
# Method: Young Wistar rats (9-10 days old) were anesthetized with chloral hydrate (0.3 mg/g body weight). Then, the head of rat was fixed on a stereotaxis stage with a pair of ear bars and a nose clamp (SR-5N, Narishige, Tokyo, Japan). The head skin was sagittally incised and a small hole was made through the skull to expose the cerebellum. A micropipette was inserted through cerebellum, and a suspension of Sindbis virus encoding F2C protein (Sindbis-F2C) was injected (0.5-1 μl) into the brainstem by applying a mild positive pressure to the micropipette with the mouth. The incised part of the skin was then sutured and the rat was returned to the mother after recovery from anesthesia. […]
# as §2
# μ-calpain = target: T1, μ-calpain (Homo sapiens, UniProt P07384); assay: Western blotting for cleavage of the fusion protein by calpain; format: biochemical; conditions: incubated with purified μ-calpain in Ca-EGTA buffer (data not shown)
# T1 construct: purchased Calbiochem
# T1 sequence (P07384 1-714): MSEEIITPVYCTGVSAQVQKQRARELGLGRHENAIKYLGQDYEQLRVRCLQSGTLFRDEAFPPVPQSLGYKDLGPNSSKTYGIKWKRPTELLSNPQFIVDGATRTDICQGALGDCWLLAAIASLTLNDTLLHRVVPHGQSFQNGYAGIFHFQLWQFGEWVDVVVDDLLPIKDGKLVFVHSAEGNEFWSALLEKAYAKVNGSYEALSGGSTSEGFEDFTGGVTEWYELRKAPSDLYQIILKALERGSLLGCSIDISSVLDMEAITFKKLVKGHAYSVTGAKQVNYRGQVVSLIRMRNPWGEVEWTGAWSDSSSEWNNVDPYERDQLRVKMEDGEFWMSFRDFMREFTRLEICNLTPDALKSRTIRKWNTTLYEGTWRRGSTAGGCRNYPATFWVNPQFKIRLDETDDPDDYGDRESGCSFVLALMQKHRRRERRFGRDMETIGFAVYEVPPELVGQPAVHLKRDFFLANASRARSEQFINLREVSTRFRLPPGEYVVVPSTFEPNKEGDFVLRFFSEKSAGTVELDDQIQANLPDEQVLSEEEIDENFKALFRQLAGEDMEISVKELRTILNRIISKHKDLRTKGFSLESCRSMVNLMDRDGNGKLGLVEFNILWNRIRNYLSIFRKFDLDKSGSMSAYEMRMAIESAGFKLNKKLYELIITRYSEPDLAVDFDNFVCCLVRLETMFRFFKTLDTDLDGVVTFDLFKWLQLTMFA
# T1 sequence (P04632 1-268 partner): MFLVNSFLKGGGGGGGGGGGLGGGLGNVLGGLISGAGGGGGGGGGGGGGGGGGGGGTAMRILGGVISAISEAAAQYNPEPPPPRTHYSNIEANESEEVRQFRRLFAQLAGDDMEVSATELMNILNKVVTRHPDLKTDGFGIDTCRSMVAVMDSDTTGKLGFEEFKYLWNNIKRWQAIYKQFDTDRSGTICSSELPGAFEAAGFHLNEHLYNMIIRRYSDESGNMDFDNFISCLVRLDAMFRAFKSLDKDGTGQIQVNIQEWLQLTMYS
# Method: To obtain cell lysate, cells were pelletized and homogenized in EGTA buffer (10 mM EGTA-Na, 10 mM HEPES-K, 150 mM NaCl) or Ca-EGTA buffer (10 mM CaCl2, 10 mM EGTA-Na, 10 mM HEPES-K, 150 mM NaCl). The Ca^2+ concentration was finally adjusted to 20 μM. The cell lysates contained the protease inhibitor cocktail (Nacalai Tesque). The cell lysates were incubated at 30° C. for 30 min or 60 min. In some experiments, cell lysates were incubated with a purified μ-calpain (Calpain I, Calbiochem, California, U.S.A.) at 30° C. for 30 min or 60 min. These cell lysates were centrifuged at 20,000×g for 20 min and the supernatants were fractionated. The supernatants were loaded onto 10% SDS-PAGE gels. Western blotting was carried out according to the method of Towbin et al. (Towbin, H. et al., Proc. Natl. Acad. Sci. U.S.A., 76, 4350-4354, 1979), using mouse anti-GFP antibody for detecting F2C cleavage (dilution rate 1:1000, MBL, Nagoya, Japan) and anti-PKC α antibody (dilution rate 1:500, Upstate, N.Y., U.S.A.) to confirm calpain activity.
# Ca^2+ = assay: Simultaneous Fura-2 and F2C fluorescence measurement, Ca2+ titration and kinetics; format: cell-based, rat
# Method: as §1
# Rmax=2.38 and Rmin=0.58 were obtained by measurement from the Purkinje cell membrane loaded with Fura-2 perforated with 1 μM ionomycin, after equilibration with normal ACSF ([…]) for Rmax and equilibration with 0 mM CaCl2, 10 mM EGTA ACSF for Rmin. […]
Molecule,percentage of F535 EYFP maximum fluorescence change to Fura-2 maximum ratio change versus control free of calpain inhibitors (calpain),percentage of F535 EYFP maximum fluorescence change to Fura-2 maximum ratio change (mean ± S.E.M.) (calpain),ECFP/EYFP fluorescence ratio change ([1]; Purkinje cells 14DIV exposed to 7.5 mM KCl (basal 5 mM)),ECFP/EYFP fluorescence ratio change ([1]; Purkinje cells 14DIV exposed to 10 mM KCl (basal 5 mM)),ECFP/EYFP fluorescence ratio change ([1]; Purkinje cells 14DIV exposed to 15 mM KCl (basal 5 mM)),"time over which reversible changes of the ECFP/EYFP fluorescence ratio were observed ([2]; 10 mM KCl stimulation, cochlear nucleus neurons, FIG. 9)","change of FRET fluorescence ratio on exposure to high KCl solution ([2]; brainstem slices, 15 mM KCl applied 3 times)",fragmented protein signal in Western blot (cleavage by calpain) (μ-calpain),"speed of Ca^2+ response (20-80% rise time of F535) compared with Fura-2 (F340/F380) (Ca^2+; n=240 cells, various CaCl2 and KCl conditions)","Hill coefficient (Ca^2+; titration of F2C, pH 7.4)","Kd (Ca^2+; titration of F2C, pH 7.4, read-out: apparent Kd value for Ca^2+)"
CSCC[C@@H](C=O)NC(=O)[C@H](CC(C)C)NC(=O)[C@H](CC(C)C)NC(C)=O [ALLM] (Ac-Leu-Leu-Met-aldehyde),not different,35.9 ± 1.4%,–,–,–,–,–,–,–,–,–
CCCC[C@@H](C=O)NC(=O)[C@H](CC(C)C)NC(=O)[C@H](CC(C)C)NC(C)=O [ALLN] (Ac-Leu-Leu-[Nle]-aldehyde),not different,37.1 ± 2.1%,–,–,–,–,–,–,–,–,–
"F2C: Fusion protein (SEQ ID NO:6): GAP43 palmitoylation signal, ECFP, two α-spectrin calpain sensitive sequences, EYFP",–,–,1.03 fold,1.39 fold,1.78 fold,at least 200 min,changed reversibly,not detected,almost the same speed,4,150 nM

# From patent US7713713B2, “Polypeptide having intracellular calcium ion indicator function” (Kyoto University, priority 2005, dated 2010)
